Values quoted from earlier work, collected in PMC3906704 (Journal of molecular biochemistry, 2012).

Conditions: substitution of Gly6 in GnRH-I; ref Karten & Rivier 1986

Q: With “L-Ala^6: GnRH analog with L-Ala^6 substitution (QHWSYALRPG; Gonadoliberin-1; UniProt P01148 24-33, looked up, variant G6A)” as the substance, how does the “Potency relative to native GnRH-I” value read?
A: Its value is 4%.
